Assay results as given in US8455510B2.
Where two headings read alike, the source gives them in different places.

How the values were obtained:
[1] = test system: normal mouse spleen B lymphocytes induced by LPS; assay: 3H-TdR incorporation, LPS-induced B lymphocyte proliferation; type: cell-based, BALB/c mice; settings: read-out: IC50, proliferation of B lymphocytes induced by LPS
Procedure: ^3H-thymidine incorporation was adopted to measure the effect of the in vitro administered compound on the proliferation function of the spleen lymphocytes of normal mice induced by a mixed culture of mitogen/allogeneic mouse spleen lymphocytes, and evaluate the in vitro immunosuppressive activity of the compound.
Measurement of the effects of compounds on the proliferation function of mouse spleen lymphocytes induced by mitogen by ^3H-TdR incorporation: 100 μl cell suspension of mouse spleen lymphocytes was inoculated on a 96-well plate (4×10^5 per well), followed by addition of 50 μl of ConA (final concentration: 5 μg/ml), 50 μl of LPS (final concentration: […]) or 50 μl of compound at different concentrations. The total volume of each well was 200 μl. The test was carried out in triplicate wells for each concentration, and included control wells without ConA/LPS or the compound. After the 96-well plate was placed in an incubator at 37° C. with 5% CO2 for 48 hours, 25 μl of ^3H-thymidine (10 μCi/ml) was added in each well 8 hours before the end of incubation. […] The amount of ^3H-TdR incorporated in cell DNA was determined by a Beta cell counter (MicroBeta Trilux, PerkinElmer), and the cell proliferation was represented as a cpm value.

[2] = test system: allogeneic antigen-induced mouse spleen lymphocytes; assay: Mixed lymphocyte culture, 3H-TdR incorporation; type: cell-based, C57BL/6 and BALB/C mice; settings: for inhibition at 0.0001342 µM / inhibition at 0.0003355 µM / inhibition at 0.0008389 µM / inhibition at 0.0020972 µM / inhibition at 0.0052429 µM / inhibition at 0.013107 µM / inhibition at 0.032768 µM / inhibition at 0.0819 µM / inhibition at 0.2048 µM / inhibition at 0.512 µM / inhibition at 1.28 µM / inhibition at 3.2 µM / inhibition at 8 µM / inhibition at 20 µM: Mus musculus, Lymphocyte
Procedure: Preparation of Stimulator Cells: a Cell Suspension of Balb/C Mouse Spleen Lymphocytes was irradiated by cesium 137 at 3000 Rads using a Gamma radiometer (Gammacell 3000) to make the cells lose their proliferation ability. After washed by RPMI-1640 for 2 times, the cell concentration was adjusted to 5×10^6/ml.
Preparation of responder cells: C57BL/6 mouse spleen lymphocytes were used as the responder cells, and the cell concentration was 5×10^6/ml.
Mixed lymphocyte culture: 50 μl cell suspension of C57BL/6 mouse spleen lymphocytes was inoculated on a 96-well plate, and 50 μl cell suspension of BALB/C mouse spleen lymphocytes treated by cesium 137 was added therein, followed by addition of 50 μl compound at different concentrations. The total volume for each well was 200 μl. If the total volume was less than 200 μl, it was supplemented with RMPI-1640 medium. The tests were divided into 3 groups, i.e., BALB/C mouse group, C57BL/6 mouse group and BALB/C and C57BL/6 mice mixed culture group. The test was carried out in triplicate wells for each concentration, and included control wells without the compound, with only the stimulator cells and with only the responder cells. The 96-well plate was incubated in an incubator at 37° C. with 5% CO2 for 3 to 5 days. 8 hours before the end of incubation, 25 μl of ^3H-thymidine (10 μCi/ml) was added in each well. After the incubation was completed, cells were harvested by a cell harvester on a glass fiber film. After addition of a scintillation fluid, the amount of ^3H-TdR incorporated in cell DNA was determined by a Beta cell counter (MicroBeta Trilux, PerkinElmer), and the cell proliferation was represented as a cpm value.

[3] = test system: SRBC-induced specific antibody-producing cells in spleen lymphocytes; assay: Quantitative hemolysis of sheep red blood cells (QHS) assay; type: in vivo, BALB/c mice; settings: 1.5 mg/kg, intraperitoneal injection; for Quantitative hemolysis OD Value: model control 0.3887, normal control 0.3036
Description: It is a classic experimental method to determine the generation of antigen-specific antibody with SRBC hemolytic reaction in SRBC-induced mouse humoral immunity model. The quantitative hemolysis of sheep red blood cells (QHS) assay is an experimental method for evaluating the amount of the antibody secreted, which is based on the principle that the sheep red blood cells are hemolyzed by the anti-SRBC specific antibody secreted by B lymphocytes (plasma cells) to release haemoglobin. After mice are sensitized by sheep red blood cells (SRBC), there will appear cells which can secrete specific antibody in mouse spleen lymphocytes. The Antibody secreted by such cells could hemolyze SRBC with the synergistic action of the complement. Therefore, the amount of the cells secreting the specific antibody can be evaluated by determining the hemolytic degree by spectrophotometry. […] BALB/c mice were randomly divided into 5 groups with 6 mice in each group. […] When immunized, the mice in each group were administered by intraperitoneal injection once daily until 5 days after the immunization. The mice in model control group were administered daily with the solvent. 2. […] Each mice was introperitoneally injected with 0.2 ml of the diluted SRBC for sensitizing. 3. QHS assay was carried out 5 days after the sensitization: The mouse spleen was collected to produce the spleen lymphocytes. […] The mixture was kept at 37° C. for 1 hour, and then centrifugated at 3000 rpm for 10 min. […] The quantitative hemolysis of sheep red blood cells (QHS) assay uses the amount of haemoglobin (OD value) released from the hemolysis of red blood cells by the antibody secreted by B cells to indicate the level of humoral immunity in body. Inhibition of specific antibody-secreting cells %=(OD of model control group-OD of administration group)/(OD of model control group-OD of normal control group)

| SMILES | CPM Mean value ([2]; 0.1342 nM) | CPM Mean value ([2]; 0.3355 nM) | CPM Mean value ([2]; 0.8389 nM) | CPM Mean value ([2]; 2.0972 nM) | CPM Mean value ([2]; 32.768 nM) | CPM Mean value ([2]; 81.9 nM) | CPM Mean value ([2]; 204.8 nM) | CPM Mean value ([2]; 512 nM) | CPM Mean value ([2]; 1280 nM) | CPM Mean value ([2]; 3200 nM) | CPM Mean value ([2]; 8000 nM) | CPM Mean value ([2]; 20000 nM) | inhibition at 0.0001342 µM ([2]; 0.1342 nM) | inhibition at 0.0003355 µM ([2]; 0.3355 nM) | inhibition at 0.0008389 µM ([2]; 0.8389 nM) | inhibition at 0.0020972 µM ([2]; 2.0972 nM) | inhibition at 0.0052429 µM ([2]; 5.2429 nM) | inhibition at 0.013107 µM ([2]; 13.107 nM) | inhibition at 0.032768 µM ([2]; 32.768 nM) | inhibition at 0.0819 µM ([2]; 81.9 nM) | other results |
| --- | --- | --- | --- | --- | --- | --- | --- | --- | --- | --- | --- | --- | --- | --- | --- | --- | --- | --- | --- | --- | --- |
| CO[C@H]1C[C@@H]2CC[C@@H](C)[C@@](O)(O2)C(=O)C(=O)N2CCCC[C@H]2C(=O)O[C@H]([C@H](C)C[C@@H]2CC[C@@H](O)[C@H](OC)C2)CC(=O)[C@H](C)/C=C(\C)[C@@H](O)[C@@H](OC)C(=O)[C@H](C)C[C@H](C)/C=C/C=C/C=C/1C [Rapamycin] | 4788 | 3157 | 1955 | 1638 | 956 | 1012 | 848 | 1068 | 967 | 840 | 780 | 362 | 35% | 57% | 73% | 78% | 83% | 83% | 87% | 86% | IC50 [1]: 48.8 nM; inhibition at 0.2048 µM ([2]; 204.8 nM): 88%; inhibition at 0.512 µM ([2]; 512 nM): 85%; inhibition at 1.28 µM ([2]; 1280 nM): 87%; inhibition at 3.2 µM ([2]; 3200 nM): 89%; inhibition at 8 µM ([2]; 8000 nM): 89%; inhibition at 20 µM ([2]; 20000 nM): 95%; Inhibition of Specific Antibody-secreting cells % [3]: 100%; Quantitative hemolysis OD Value [3]: 0.3012 |
| CO[C@H]1C[C@@H]2CC[C@@H](C)[C@@](O)(O2)C(=O)C(=O)N2CCCC[C@H]2C(=O)O[C@H]([C@H](C)C[C@@H]2CC[C@@H](OC(=O)OCC(O)CO)[C@H](OC)C2)CC(=O)[C@H](C)/C=C(\C)[C@@H](O)[C@@H](OC)C(=O)[C@H](C)C[C@H](C)/C=C/C=C/C=C/1C (stereo partly drawn) [Y31] | 1338 | 1296 | 1202 | 1137 | 1189 | 1314 | 1090 | 1436 | 1209 | 1132 | 1190 | 815 | 82% | 82% | 84% | 85% | 85% | 85% | 84% | 82% | IC50 ([1]; LPS, 48 hours, 3H-TdR): 97.8 nM; CPM Mean value ([2]; 5.2429 nM): 1131; CPM Mean value ([2]; 13.107 nM): 1137; inhibition at 0.2048 µM ([2]; 204.8 nM): 85%; inhibition at 0.512 µM ([2]; 512 nM): 80%; inhibition at 1.28 µM ([2]; 1280 nM): 84%; inhibition at 3.2 µM ([2]; 3200 nM): 85%; inhibition at 8 µM ([2]; 8000 nM): 84%; inhibition at 20 µM ([2]; 20000 nM): 89%; Inhibition of Specific Antibody-secreting cells % [3]: 93.03%; Quantitative hemolysis OD Value [3]: 0.3095 |
